Data set [1] concerns the target T1, VR1 (Rattus norvegicus, UniProt O35433).
T1 construct: expressed in transfected cells; host or cells: Chinese Hamster Ovary cells (CHO, ATCC CCL-61), Tet-off inducible expression
Nature of the data set: 45Ca influx test in CHO cells expressing VR1, antagonistic activity against 50 nM capsaicin. It is filed as cell-based. The note with it: 45Ca uptake stimulated with 50 nM capsaicin. As for the experimental part:
(§1) The ^45Ca Influx test by using CHO cells of the inventive compounds was measured by using Chinese Hamster Ovary (CHO, ATCC, No. CCL-61) cell whose cDNA of VR1 (pUHG102 VR1 plasmid) was transfected, which can control the expression of VR1 according to the presence of tetracycline and Tetracycline on/off system (pTet off regulatory plasmid, Clontech. Inc., USA) that the expression of VR1 is induced by removing tetracycline from the medium.
(§2) The CHO cells were poured onto 24 well plates to the extent that its density reaches at 30% and incubated for 24 hours at 37° C. The culture medium was exchanged to tetracycline free medium to induce the expression of VR1 and tested after 36 hours.
(§3) Together with 0.25 mg/ml BSA (Sigma A2153, USA), 1 Ci/ml ^45Ca(5-30 Ci/g used, ICN. Co., 62005 RT, U.S.A.), the test samples with increasing concentrations were added to each well. At the quenching moment of the incubation with ^45Ca, the cultured cells were removed from the medium, washed three times with cool PBS buffer solution containing 1.8 mM CaCl2 and 400 μl of RIPA buffer solution (50 mM Tris pH 7.4; 150 mM sodium chloride; 0.1% SDS; 1% sodium deoxycholate), was added in each well to homogenize the cells. The plates were stirred for 20 minutes slowly and 300 μl of cell lysate was transferred to scintillation vials from each wells. The radioactivity was determined by scintillation counter.
(§4) The data were assessed by determining four wells per each data point in each experiment and analyzed in computer by being transformed into Hill equation. The experiments were determined in triplicate in each sample comprising inventive compounds and control groups.
In order to determine the antagonistic activity, ^45Ca^2+-uptake stimulating-mixture was added with 50 nM capsaicin and the antagonistic activity was determined by the method for the agonistic activity. In case that 10 μM a certain compound cannot change the capsaicin-inducing activity, the compound shall be regarded as an […].

Data set [2] addresses T2, vanilloid receptor-1 (VR1) (Rattus norvegicus, UniProt O35433).
T2 construct: expressed in transfected cells; host or cells: Chinese Hamster Ovary cells (CHO, ATCC CCL-61), Tet-off inducible expression
Nature of the data set: [3H]RTX competition binding assay, VR1-expressing CHO cells. The following applies: displacement of bound [3H]RTX; mean±SEM, 3 experiments. As for the experimental part: The binding affinity activity of the target compounds for vanilloid receptor-1 was measured by an in vitro receptor binding affinity assay. In the receptor binding assay, the compounds were evaluated for their ability to displace bound [^3H]RTX from the receptor. The results are expressed in terms of Ki values (mean±SEM, 3 experiments) which represent the concentration of the non-radioactive ligand that displaces half of the bound labeled RTX.
The VR receptor binding affinity activity of the inventive compounds was measured by using Chinese Hamster Ovary (CHO, ATCC, No. CCL-61) cell whose cDNA of VR1 (pUHG102 VR1 plasmid) was transfected, which can control the expression of VR1 according to the presence of tetracycline and Tetracycline on/off system (pTet off regulatory plasmid, Clontech. Inc., USA) that the expression of VR1 is induced by removing tetracycline from the medium. […] The cells were cultured after removing tetracycline prior to 48 hours. The tetracycline free culture medium was seeded at the bottom of T75 flask, incubated to the extent that its density reaches at 90%, and washed once with PBS buffer solution. The cells were collected by using saline solution containing 5 mM EDTA and subjected to centrifugation slightly to obtain precipitates, further, which had been kept at the temperature of −20° C. before use.
Experiments were designed to assess inhibition of specific [^3H]RTX binding to membranes by non-radioactive compounds. The binding assay mixture containing [^3H]RTX ([…]), various concentrations of competitive binding substances, 0.25 mg/ml of BSA (Cohn fraction V), 5×10^4 ˜5×10^5 numbers of VR1 and the expression cell, was admixed with saline solution containing 450 μl of Ca^2+ and Mg^2+ and […] of BSA. Non-specific binding assay was measured after mixing 100 nM of non-radioactive RTX thereto. The reaction mixture was treated for 60 min at 37° C. and the reaction was quenched by cooling over ice. RTX bound to the membrane of VR1 was subjected to centrifugation with maximum velocity for 15 minutes to precipitate its membrane residue, which results in separating from non-binding RTX. The tips of tube containing above precipitate was cut off and the amount of bound radioisotope was determined by scintillation counter (LS6500, Beckman-Coulter, USA). The measurement of binding was determined in triplicate in each experiment, and each experiment was repeated at least two times. Binding data were analyzed by fitting to the Hill equation and the Ki (equilibrium binding parameter) index, the Bmax (maximum binding parameter) index, and the cooperativity index etc., were determined by using origin 6.0 program (Origin, MicroCal Co., USA).
An initial compound was dissolved in DMSO (dimethyl sulfoxide) and diluted with saline solution containing Ca^2+ and […], and […] of BSA.

The target in data set [3] is T1, VR1. Nature of the data set: 45Ca influx test in CHO cells expressing VR1, agonistic activity. It is filed as cell-based. The following applies: 45Ca uptake. As for the experimental part: The ^45Ca Influx test by using CHO cells expressing VR1 was performed by the procedure described in the literature (Lee, J. W., Bioorganic & Medicinal Chemistry, pp 1713-1720, 2001).
as §1, §2
as §3, with “In radioactive ^45Ca uptake experiment, The cells were incubated in […] of DMEM medium (Dulbecco's modified Eagles medium: Gibco-BRL, 31600-083) containing free of serum and 1.8 mM CaCl2 for 10 minutes at 37*C. Together” for “Together”
as §4

The next data set has as its system Male ICR mice. Nature of the data set: Acetic acid-induced writhing test. It is filed as in vivo. The following applies: for ED50: Mus musculus, ip, i.p. 30 mins before 1.2% acetic acid i.p., 50% reduction of the number of writhes; for analgesic effect compared with thiourea compounds JYL-827 and 1433: writhing test. As for the experimental part: The acetic acid-induced writhing test for testing the analgesic activity of inventive compounds prepared from above Examples was performed by the procedure described in the literature (Lee, J. W., Bioorganic & Medicinal Chemistry, pp 1713-1720, 2001).
Male ICR mice having its mean body weight of 25 g (CD-1; Biogenomics Co. Korea) were reared in lighting controlled environment (12 hrs on/12 hrs off) maintaining with temperatures at 22±2° C. and humidity at 50±5% and allowed to eat a diet and to drink tap water ad lib.
Mice were fasted overnight prior to testing and adopted to the environment.
0.3 ml of acetic acid solution (1.2%) was administrated in the mice intraperitoneally and then the mice were put into the transparent acryl box (15×15×15 cm). 5 minutes later, the number of abdominal constrictions was counted for 20 minutes. Each group consisting of ten mice was pretreated with test compounds or solvent (0.2 ml, i.p.) 30 mins before the injection of acetic acid. Test compounds were dissolved in the mixture of ethanol/Tween-80/saline ([…]) or cremophor EL/DMSO/d-water ([…]).
Analgesic activity of each drug was determined at several different concentrations.
The index of analgesic activity (eff) was defined as below Empirical formula 1. Analgesic activity (eff)=100−{(No. of abdominal constriction of test group/No. of abdominal constriction of control group)×100} [Empirical formula 1]
Analgesic activity was expressed as the reduction in the number of abdominal constrictions, of control animals (vehicle-pretreated mice) and animals pretreated with test compounds.
Background: An intraperitoneal irritant provokes the stretching counted in writhing tests.

What is called IC50 is the concentration that gives 50% inhibition. The low end stands for higher potency, the high end for lower potency. In general, melting point refers to the temperature, or range, at which the solid turns liquid. The Ki is the dissociation constant of the complex between target and ligand, obtained from inhibition or displacement. A high value points to weaker binding. By EC50 is commonly meant the concentration that produces a half-maximal response. A lower EC50 goes with greater potency. As usually defined, the ED50 is the midpoint of the dose-response relation.

T1 sequence (O35433 whole entry): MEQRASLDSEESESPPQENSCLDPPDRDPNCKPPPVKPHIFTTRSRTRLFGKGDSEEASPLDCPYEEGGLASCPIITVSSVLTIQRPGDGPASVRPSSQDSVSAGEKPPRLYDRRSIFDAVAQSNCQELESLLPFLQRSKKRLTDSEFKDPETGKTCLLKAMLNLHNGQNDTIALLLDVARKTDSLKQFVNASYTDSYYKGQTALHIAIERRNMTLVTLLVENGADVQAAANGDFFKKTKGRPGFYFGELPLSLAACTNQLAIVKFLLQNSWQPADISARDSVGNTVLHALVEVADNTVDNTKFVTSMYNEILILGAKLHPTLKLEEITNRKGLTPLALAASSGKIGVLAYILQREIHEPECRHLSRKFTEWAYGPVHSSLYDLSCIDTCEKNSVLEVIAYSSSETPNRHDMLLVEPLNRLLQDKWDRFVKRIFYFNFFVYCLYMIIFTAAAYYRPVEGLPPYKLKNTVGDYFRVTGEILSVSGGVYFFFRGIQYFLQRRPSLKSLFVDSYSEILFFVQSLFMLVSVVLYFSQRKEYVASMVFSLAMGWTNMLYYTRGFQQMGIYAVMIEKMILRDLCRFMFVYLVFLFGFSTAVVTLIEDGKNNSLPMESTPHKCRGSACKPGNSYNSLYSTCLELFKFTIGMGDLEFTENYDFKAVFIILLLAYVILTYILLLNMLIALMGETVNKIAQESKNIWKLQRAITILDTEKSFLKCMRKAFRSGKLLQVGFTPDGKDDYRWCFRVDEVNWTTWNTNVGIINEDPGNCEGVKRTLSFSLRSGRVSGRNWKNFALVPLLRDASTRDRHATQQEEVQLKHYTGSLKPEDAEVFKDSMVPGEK
T2 sequence (O35433 whole entry): as above

In turn, `CC(C)(C)c1ccc(CNC(=S)N(O)Cc2ccc(NS(C)(=O)=O)cc2)cc1` [Compound 60, N-(4-tert-butylbenzyl)-N-hydroxy-N-[4-(methylsulfonylamino)benzyl]thiourea] had a melting point of 124 °C. Also, on VR1 [1], the midpoint of inhibition, the IC50, lay at 465 nM. For the same molecule, the affinity in data set [2], expressed as Ki, was 4260 nM.

Consider `CC(C)(C)c1ccc(CN(O)C(=O)Cc2ccc(NS(C)(=O)=O)cc2)cc1` [Compound 45, N-(4-tert-butylbenzyl)-N-hydroxy-[4-(methylsulfonylamino)phenyl] acetamide], for which the melting point lay in the range of 161 to 163 °C. In addition, the response on VR1 [3] was half-maximal at 3500 nM (EC50). Further, the IC50 on VR1 [1] was found to be 6590 nM. The Ki in data set [2] came out at 6380 nM.

As to `COc1cc(CNC(=S)N(O)Cc2ccc(C(C)(C)C)cc2)ccc1NS(C)(=O)=O` [Compound 29, N-(4-tert-butylbenzyl)-N-hydroxy-N-[3-methoxy-4-(methylsulfonylamino)benzyl]thiourea], the melting point was in the range of 112.5 to 115 °C. On VR1 [3], the EC50 turned out to be 2010 nM. Also, the 50% effect level with Male ICR mice (ED50) was put at a dose of 0.103 µg/kg.

On to `Cc1ccc(CC(COC(=O)C(C)(C)C)CN(O)C(=S)NCc2ccc(NS(C)(=O)=O)cc2)cc1C` (centres unmarked) [Compound 35, N-[2-(3,4-dimethylbenzyl)-3-(pivaloyloxy)propyl]-N-hydroxy-N-[4-(methylsulfonylamino)benzyl]thiourea], for which the half-maximal effective concentration (EC50) on VR1 [3] was 1230 nM. On VR1 [1], this molecule displayed a concentration for half-maximal inhibition (IC50) of 212 nM. For the same molecule, the Ki in data set [2] worked out at 1040 nM. For the same molecule, in the data set with Male ICR mice, the ED50 was 2.6 µg/kg; the “analgesic effect compared with thiourea compounds JYL-827 and 1433” value is given as “stronger analgesic effect”.

For the molecule `Cc1ccc(CC(CNC(=S)N(O)Cc2ccc(NS(C)(=O)=O)cc2)COC(=O)C(C)(C)C)cc1C` (centres unmarked) [Compound 61, N-[2-(3,4-dimethylbenzyl)-3-(pivaloyloxy)propyl]-N-hydroxy-N-[4-(methylsulfonylamino)benzyl]thiourea], the “EC50 (nM) (VR1/CHO)” value on VR1 [3] is recorded as “Weak”. For the same molecule, the “IC50 (nM) (VR1/CHO)” value against VR1 [1] is on record as “Weak”. This molecule displayed a Ki in data set [2] of 481 nM.

For `CC(C)(C)c1ccc(CNC(=O)N(O)Cc2ccc(NS(C)(=O)=O)cc2)cc1` [Compound 62, N-(4-tert-butylbenzyl)-N-hydroxy-N-[4-(methylsulfonylamino)benzyl]urea], the melting point worked out at 125 °C. This molecule showed an EC50 at VR1 [3] of 1060 nM.

With `Cc1ccc(CC(COC(=O)C(C)(C)C)CN(O)C(=S)NCc2ccc(NS(C)(=O)=O)c(F)c2)cc1C` (centres unmarked) [Compound 37, N-[2-(3,4-dimethylbenzyl)-3-(pivaloyloxy)propyl]-N-hydroxy-N-[3-fluoro-4-(methylsulfonylamino)benzyl]thiourea], the IC50 against VR1 [1] was determined as 93.7 nM. In addition, the affinity in data set [2], expressed as Ki, was 212 nM. Further, the “analgesic effect, fold stronger than that of Ketorolac” value in the data set on Male ICR mice (ratio of writhing test ED50 values) is listed as 43,000 fold. The “analgesic effect compared with thiourea compounds JYL-827 and 1433” value in the data set on Male ICR mice is given as “stronger analgesic effect”.

Molecule `CC(C)(C)c1ccc(CN(O)C(=S)NCc2ccc(NS(C)(=O)=O)cc2)cc1` [Compound 28, N-(4-tert-butylbenzyl)-N-hydroxy-N-[4-(methylsulfonylamino)benzyl]thiourea] had a melting point of 137 °C. Moreover, the IC50 against VR1 [1] came to 470 nM. In data set [2], the affinity, expressed as Ki, was 1090 nM. Besides, in the data set with Male ICR mice, the ED50 came out at 1560 µg/kg.

`CC(C)(C)c1ccc(CN(O)C(=S)NCc2ccc(NS(C)(=O)=O)c(F)c2)cc1` [Compound 30, N-(4-tert-butylbenzyl)-N-hydroxy-N-[3-fluoro-4-(methylsulfonylamino)benzyl]thiourea] had a melting point of 124 to 126 °C. The EC50 at VR1 [3] is > 7060 nM. This molecule also displayed a Ki in data set [2] of 802 nM. Moreover, the ED50 in the data set on Male ICR mice was found to be 1.07 µg/kg.

These data come from patent US20050288369A1, “Novel n-hydroxy thiourea, urea and amide compounds and the pharmaceutical compositions comprising the same” (priority 2002, published 2005).
